# Measured values published in patent publication US9029378B2, “Substituted bicyclic aromatic carboxamide and urea compounds as vanilloid receptor ligands” (Gruenenthal GmbH, priority 2011, dated 2015).
# Target: T1, vanilloid receptor 1 (VR1/TRPV1 receptor) (Homo sapiens, UniProt Q8NER1)
# T1 construct: expressed in transfected cells; host or cells: CHO K1
# Assay: Functional testing on the vanilloid receptor 1 (FLIPR Ca2+ influx assay, capsaicin)
# Format: cell-based, human being
# Set-up: key to (f) (human being) Cap: effect in words (agonist / no effect): AG=agonist; NE=no effect
# Settings: @1 μM; Cap=capsaicin; read-out: inhibition (as a percentage), (f) (human being) Cap
# Method: Furthermore, preference may be given to compounds according to the invention that cause a 50 percent displacement of capsaicin, which is present at a concentration of 100 nM, in a FLIPR assay with CHO K1 cells which were transfected with the human VR1 gene at a concentration of less than 2,000 nM, preferably less than 1,000 nM, particularly preferably less than 300 nM, most particularly preferably less than 100 nM, even more preferably less than 75 nM, additionally preferably less than 50 nM, most preferably less than 10 nM.
# In the process, the Ca^2+ influx is quantified in the FLIPR assay with the aid of a Ca^2+-sensitive dye (type Fluo-4, Molecular Probes Europe BV, Leiden, the Netherlands) in a fluorescent imaging plate reader (FLIPR, Molecular Devices, Sunnyvale, USA), as described hereinafter.
# Pharmacological Methods I. Functional Testing Carried Out on the Vanilloid Receptor 1 (VR1/TRPV1 Receptor) […]
# The number of cells in the suspension is set to 3×10^5 per mL and 150 μL of this suspension are in each case introduced into a recess in the cell culture plates coated as described hereinbefore. In the incubator the plates are left for two to three days at 37° C., 5% by volume of CO2 and 95% relative humidity. Subsequently, the cells are loaded with 2 μM of Fluo-4 and 0.01% by volume of Pluronic F127 (Molecular Probes Europe BV, Leiden, the Netherlands) in HBSS buffer (Hank's buffered saline solution, Gibco Invitrogen GmbH, Karlsruhe, Germany) for 30 min at 37° C., washed 3 times with HBSS buffer and after further incubation for 15 minutes at room temperature used for Ca^2+ measurement in a FLIPR assay. The Ca^2+-dependent fluorescence is in this case measured before and after the addition of substances (λex=488 nm, λem=540 nm). Quantification is carried out by measuring the highest fluorescence intensity (FC, fluorescence counts) over time.
# The FLIPR protocol consists of 2 substance additions. First the compounds to be tested (10 μM) are pipetted onto the cells and the Ca^2+ influx is compared with the control (capsaicin 10 μM). This provides the result in % activation based on the Ca^2+ signal after the addition of 10 μM of capsaicin (CP). After 5 minutes' incubation, 100 nM of capsaicin are applied and the Ca^2+ influx is also determined.
# Desensitising agonists and antagonists lead to suppression of the Ca^2+ influx. The % inhibition is calculated compared to the maximum achievable inhibition with 10 μM of capsazepine. Triple analyses (n=3) are carried out and repeated in at least 3 independent experiments (N=4). Starting from the percentage displacement caused by different concentrations of the compounds to be tested of general formula I, IC50 inhibitory concentrations which cause a 50-percent displacement of capsaicin were calculated. Ki values for the test substances were obtained by conversion by means of the Cheng-Prusoff equation (Cheng, Prusoff; Biochem. Pharmacol. 22, 3099-3108, 1973).
# The affinity of the compounds of to the invention for the vanilloid receptor 1 (VR1/TRPV1 receptor) was determined as described hereinbefore (pharmacological method I). The compounds of the invention display outstanding affinity to the VR1/TRPV1 receptor (Table 2). In Table 2 the abbreviations below have the following meanings: • Cap=capsaicin • AG=agonist • NE=no effect
# The value after the “@” symbol indicates the concentration at which the inhibition (as a percentage) was respectively determined.
# T1 sequence (Q8NER1 whole entry): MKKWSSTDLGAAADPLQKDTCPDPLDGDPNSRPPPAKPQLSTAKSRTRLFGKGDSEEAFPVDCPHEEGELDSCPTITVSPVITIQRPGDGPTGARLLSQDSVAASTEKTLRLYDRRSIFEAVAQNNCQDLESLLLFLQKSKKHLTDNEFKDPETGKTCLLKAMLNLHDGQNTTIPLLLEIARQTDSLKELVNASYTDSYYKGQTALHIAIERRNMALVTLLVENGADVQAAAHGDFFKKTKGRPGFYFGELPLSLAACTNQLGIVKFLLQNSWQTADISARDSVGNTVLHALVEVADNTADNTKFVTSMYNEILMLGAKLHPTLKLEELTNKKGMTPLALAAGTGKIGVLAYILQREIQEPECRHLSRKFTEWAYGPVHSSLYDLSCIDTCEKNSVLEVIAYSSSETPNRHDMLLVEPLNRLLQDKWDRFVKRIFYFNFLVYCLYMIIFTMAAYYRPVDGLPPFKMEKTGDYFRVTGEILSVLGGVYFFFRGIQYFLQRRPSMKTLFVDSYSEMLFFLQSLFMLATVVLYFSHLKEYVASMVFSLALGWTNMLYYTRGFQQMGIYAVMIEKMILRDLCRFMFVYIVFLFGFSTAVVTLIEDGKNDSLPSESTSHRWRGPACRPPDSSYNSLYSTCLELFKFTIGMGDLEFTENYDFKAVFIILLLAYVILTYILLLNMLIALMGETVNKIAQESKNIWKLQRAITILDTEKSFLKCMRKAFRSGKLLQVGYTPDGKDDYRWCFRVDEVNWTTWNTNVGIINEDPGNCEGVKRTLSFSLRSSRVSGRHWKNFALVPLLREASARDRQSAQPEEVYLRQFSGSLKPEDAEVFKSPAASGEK
row,Compound,inhibition at 1 µM
1,"CC1CCN(c2nc(C(F)(F)F)ccc2CNC(=O)Nc2ccc3ncccc3c2)CC1 [Example 69, 1-((2-(4-Methylpiperidin-1-yl)-6-(trifluoromethyl)pyridin-3-yl)methyl)-3-(quinolin-6-yl)urea]",40%

# Same assay, conditions: @5 μM; Cap=capsaicin; read-out: inhibition (as a percentage), (f) (human being) Cap
row,Compound,inhibition at 5 µM
1,"Cc1ccc2cccc(NC(=O)NCc3ccc(C(C)(C)C)cc3N3CCC(C)CC3)c2n1 [Example 74, 1-(4-Tert-butyl-2-(4-methylpiperidin-1-yl)benzyl)-3-(2-methylquinolin-8-yl)urea]",24%
2,"CC(=O)Nc1nc2ccc(NC(=O)NCc3ccc(C(F)(F)F)nc3N3CCC(C)CC3)cc2s1 [Example 35, N-(6-(3-((2-(4-Methylpiperidin-1-yl)-6-(trifluoromethyl)pyridin-3-yl)methyl)ureido)benzo[d]thiazol-2-yl)acetamide]",47%
3,"CC1CCN(c2nc(C(F)(F)F)ccc2CNC(=O)Nc2cc3ccccc3cn2)CC1 [Example 21, 1-(Isoquinolin-3-yl)-3-((2-(4-methylpiperidin-1-yl)-6-(trifluoromethyl)pyridin-3-yl)methyl)urea]",39%
4,"Cc1cc(NC(=O)NCc2ccc(C(F)(F)F)nc2N2CCC(C)CC2)c2cn[nH]c2c1 [Example 56, 1-(6-Methyl-1H-indazol-4-yl)-3-((2-(4-methylpiperidin-1-yl)-6-(trifluoromethyl)pyridin-3-yl)methyl)urea]",45%

# Same assay, conditions: Cap=capsaicin
row,Compound,(f) (human being) Cap: effect in words (agonist / no effect)
1,"CC1CCN(c2nc(C(F)(F)F)ccc2CNC(=O)Nc2ccc3ncn(C)c3c2)CC1 [Example 26, 1-(1-Methyl-1H-benzo[d]imidazol-6-yl)-3-((2-(4-methylpiperidin-1-yl)-6-(trifluoromethyl)pyridin-3-yl)methyl)urea]",AG
2,"CC1CCN(c2nc(C(F)(F)F)ccc2CNC(=O)Nc2ccnc3ccccc23)CC1 [Example 17, 1-((2-(4-Methylpiperidin-1-yl)-6-(trifluoromethyl)pyridin-3-yl)methyl)-3-(quinolin-4-yl)urea]",AG
3,"CC1CCN(c2nc(C(F)(F)F)ccc2CNC(=O)Nc2nccc3ccccc23)CC1 [Example 20, 1-(Isoquinolin-1-yl)-3-((2-(4-methylpiperidin-1-yl)-6-(trifluoromethyl)pyridin-3-yl)methyl)urea]",NE

# Same assay, conditions: Cap=capsaicin (100 nM); Ki from IC50 by Cheng-Prusoff equation; read-out: (f) Ki (human being) [nM] Cap
row,Compound,Ki
1,"O=C(NCc1ccc(C(F)(F)F)nc1SC1CCCCC1)Nc1cccc2ccncc12 [Example 85, 1-((2-(Cyclohexylthio)-6-(trifluoromethyl)pyridin-3-yl)methyl)-3-(isoquinolin-8-yl)urea]",1 nM
2,"CC1CCN(c2nc(C(F)(F)F)ccc2CNC(=O)Nc2cc(Cl)cc3[nH]ncc23)CC1 [Example 55, 1-(6-Chloro-1H-indazol-4-yl)-3-((2-(4-methylpiperidin-1-yl)-6-(trifluoromethyl)pyridin-3-yl)methyl)urea]",4 nM
3,"CC(C(=O)NCc1ccc(C(F)(F)F)nc1SC1CCCCC1)c1cnc2ccccc2c1 (stereo not shown) [Example 15, N-((2-(Cyclohexylthio)-6-(trifluoromethyl)pyridin-3-yl)methyl)-2-(quinolin-3-yl)propanamide]",50 nM
4,"CC1CCN(c2nc(C(F)(F)F)ccc2CNC(=O)Nc2cncc3ccccc23)CC1 [Example 18, 1-(Isoquinolin-4-yl)-3-((2-(4-methylpiperidin-1-yl)-6-(trifluoromethyl)pyridin-3-yl)methyl)urea]",2 nM
5,"CC1CCN(c2nc(C(F)(F)F)ccc2CNC(=O)Nc2cccc3[nH]ncc23)CC1 [Example 44, 1-(1H-indazol-4-yl)-3-((2-(4-methylpiperidin-1-yl)-6-(trifluoromethyl)pyridin-3-yl)methyl)urea]",0.4 nM
6,"CC1CCN(c2nc(C(F)(F)F)ccc2CNC(=O)C(C)c2ccnc3[nH]ncc23)CC1 (stereo not shown) [Example 8, N-((2-(4-Methylpiperidin-1-yl)-6-(trifluoromethyl)pyridin-3-yl)methyl)-2-(1H-pyrazolo[3,4-b]pyridin-4-yl)propanamide]",2 nM
7,"CC1CCN(c2nc(C(F)(F)F)ccc2CNC(=O)Nc2ccc3[nH]ccc3c2)CC1 [Example 23, 1-(1H-Indol-5-yl)-3-((2-(4-methylpiperidin-1-yl)-6-(trifluoromethyl)pyridin-3-yl)methyl)urea]",13 nM
8,"CC1CCN(c2nc(C(F)(F)F)ccc2CNC(=O)Nc2cc(F)cc3[nH]ncc23)CC1 [Example 51, 1-(6-Fluoro-1H-indazol-4-yl)-3-((2-(4-methylpiperidin-1-yl)-6-(trifluoromethyl)pyridin-3-yl)methyl)urea]",3 nM
9,"CC1CCN(c2nc(C(F)(F)F)ccc2CNC(=O)Nc2cnc3ccccc3c2)CC1 [Example 12, 1-((2-(4-Methylpiperidin-1-yl)-6-(trifluoromethyl)pyridin-3-yl)methyl)-3-(quinolin-3-yl)urea]",9 nM
10,"CC1CCN(c2nc(C(F)(F)F)ccc2CNC(=O)Nc2ccc3cnn(C)c3c2)CC1 [Example 27, 1-(1-Methyl-1H-indazol-6-yl)-3-((2-(4-methylpiperidin-1-yl)-6-(trifluoromethyl)pyridin-3-yl)methyl)urea]",7 nM
11,"CC1CCN(c2nc(C(F)(F)F)ccc2CNC(=O)Nc2cccc3scnc23)CC1 [Example 59, 1-(Benzo[d]thiazol-4-yl)-3-((2-(4-methylpiperidin-1-yl)-6-(trifluoromethyl)pyridin-3-yl)methyl)urea]",18 nM
12,"Cc1nccc2cccc(NC(=O)NCc3ccc(C(F)(F)F)nc3N3CCC(C)CC3)c12 [Example 86, 1-(1-Methylisoquinolin-8-yl)-3-((2-(4-methylpiperidin-1-yl)-6-(trifluoromethyl)pyridin-3-yl)methyl)urea]",52 nM
13,N-(2-(4-Methylpiperidin-1-yl)-4-(trifluoromethyl)benzyl)-2-(quinolin-3-yl)propanamide [Example 16],10 nM
14,"CC1CCN(c2cc(C(F)(F)F)ccc2CNC(=O)Nc2cc(F)cc3[nH]ncc23)CC1 [Example 53, 1-(6-Fluoro-1H-indazol-4-yl)-3-(2-(4-methylpiperidin-1-yl)-4-(trifluoromethyl)benzyl)urea]",1 nM
15,"CC(C)Oc1nc(C(F)(F)F)ccc1CNC(=O)Nc1cccc2ncccc12 [Example 65, 1-((2-Isopropoxy-6-(trifluoromethyl)pyridin-3-yl)methyl)-3-(quinolin-5-yl)urea]",4 nM
16,"CC(C)(C)COc1nc(C(F)(F)F)ccc1CNC(=O)Nc1cccc2ncccc12 [Example 66, 1-((2-(Neopentyloxy)-6-(trifluoromethyl)pyridin-3-yl)methyl)-3-(quinolin-5-yl)urea]",2 nM
17,"CC(=O)n1ncc2c(NC(=O)NCc3ccc(C(F)(F)F)nc3N3CCC(C)CC3)cccc21 [Example 49, 1-(1-Acetyl-1H-indazol-4-yl)-3-((2-(4-methylpiperidin-1-yl)-6-(trifluoromethyl)pyridin-3-yl)methyl)urea]",13 nM
18,"CC1CCN(c2nc(C(F)(F)F)ccc2CNC(=O)Nc2cccc3[nH]ccc23)CC1 [Example 38, 1-(1H-Indol-4-yl)-3-((2-(4-methylpiperidin-1-yl)-6-(trifluoromethyl)pyridin-3-yl)methyl)urea]",1 nM
19,"CC1CCN(c2nc(C(F)(F)F)ccc2CNC(=O)Nc2cccc3ncsc23)CC1 [Example 60, 1-(Benzo[d]thiazol-7-yl)-3-((2-(4-methylpiperidin-1-yl)-6-(trifluoromethyl)pyridin-3-yl)methyl)urea]",1 nM
20,"CC1CCN(c2nc(C(F)(F)F)ccc2CNC(=O)Nc2cccc3c(O)ncnc23)CC1 [Example 89, 1-(4-Hydroxyquinazolin-8-yl)-3-((2-(4-methylpiperidin-1-yl)-6-(trifluoromethyl)pyridin-3-yl)methyl)urea]",17 nM
